We go through 19 compounds from patent US9409908B2 (priority 2012, dated 2016).

In assay [1] the target is purified human Factor XIa (Homo sapiens (Human), UniProt P03951). Briefly: biochemical. The following applies: read-out: Factor XIa Ki. The format is biochemical.
Assay [2] concerns the target purified human plasma kallikrein (Homo sapiens (Human), UniProt P03952). Briefly: biochemical. It counts as biochemical. Conditions: read-out: Plasma Kallikrein Ki.

Structures can show the parent of a compound that is named as a salt.

As usually defined, the Ki is a measure of affinity in units of concentration, obtained from inhibition or displacement.

purified human plasma kallikrein, sequence (P03952 whole entry, looked up): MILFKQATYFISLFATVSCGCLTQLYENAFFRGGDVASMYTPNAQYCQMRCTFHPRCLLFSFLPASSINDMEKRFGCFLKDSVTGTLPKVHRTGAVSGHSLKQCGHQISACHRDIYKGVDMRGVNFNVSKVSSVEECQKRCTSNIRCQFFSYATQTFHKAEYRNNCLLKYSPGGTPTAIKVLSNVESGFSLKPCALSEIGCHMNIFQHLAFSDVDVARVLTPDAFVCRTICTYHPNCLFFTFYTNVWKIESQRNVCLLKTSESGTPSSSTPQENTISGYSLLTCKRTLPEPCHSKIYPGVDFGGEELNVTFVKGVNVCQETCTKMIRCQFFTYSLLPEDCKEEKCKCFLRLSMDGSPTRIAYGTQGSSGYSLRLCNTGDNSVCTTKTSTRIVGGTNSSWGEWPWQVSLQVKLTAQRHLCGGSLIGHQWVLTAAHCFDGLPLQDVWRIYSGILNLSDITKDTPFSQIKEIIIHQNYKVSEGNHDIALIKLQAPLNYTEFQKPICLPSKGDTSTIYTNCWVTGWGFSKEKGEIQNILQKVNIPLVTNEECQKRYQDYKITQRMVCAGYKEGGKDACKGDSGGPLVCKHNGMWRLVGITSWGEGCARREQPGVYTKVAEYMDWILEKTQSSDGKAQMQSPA
purified human plasma kallikrein, sequence (P03952 whole entry partner, looked up): as the sequence (P03952 whole entry, looked up) above
purified human Factor XIa, sequence (P03951 whole entry, looked up): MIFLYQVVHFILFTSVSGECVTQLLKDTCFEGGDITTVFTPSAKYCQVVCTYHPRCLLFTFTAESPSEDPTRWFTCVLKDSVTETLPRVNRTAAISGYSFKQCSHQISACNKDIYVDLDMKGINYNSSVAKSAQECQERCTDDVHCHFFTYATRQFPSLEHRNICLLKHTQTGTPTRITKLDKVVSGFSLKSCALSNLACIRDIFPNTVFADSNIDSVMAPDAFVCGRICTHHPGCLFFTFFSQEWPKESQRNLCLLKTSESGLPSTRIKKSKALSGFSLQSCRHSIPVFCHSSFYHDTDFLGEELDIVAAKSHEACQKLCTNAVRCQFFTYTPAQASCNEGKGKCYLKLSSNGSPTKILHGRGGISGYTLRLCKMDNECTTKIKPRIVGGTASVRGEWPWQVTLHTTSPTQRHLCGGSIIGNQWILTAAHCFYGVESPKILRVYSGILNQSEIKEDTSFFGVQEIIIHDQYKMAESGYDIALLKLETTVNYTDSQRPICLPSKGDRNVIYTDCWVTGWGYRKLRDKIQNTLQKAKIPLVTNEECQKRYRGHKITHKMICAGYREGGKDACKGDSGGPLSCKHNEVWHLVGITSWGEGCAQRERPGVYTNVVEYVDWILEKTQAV
purified human Factor XIa, sequence (P03951 whole entry partner, looked up): as the sequence (P03951 whole entry, looked up) above

On to `C[C@@H]1CCC[C@H](N2CCC(c3c(C#N)ccc(Cl)c3F)=CC2=O)c2cc(ccn2)-c2cc(F)c(F)cc2NC1=O` [Example 211, 4-chloro-2-{1-[(10R,14S)-4,5-difluoro-10-methyl-9-oxo-8,16-diazatricyclo[13.3.1.0^2,7]nonadeca-1(19),2(7),3,5,15,17-hexaen-14-yl]-6-oxo-1,2,3,6-tetrahydropyridin-4-yl}-3-fluorobenzonitrile, TFA salt], for which the inhibition constant (Ki) came to 3.26 nM in assay [1] and 6.46 nM in assay [2].

For `C[C@@H]1CCC[C@H](N2CCC(c3c(C4CC4)ccc(Cl)c3F)=CC2=O)c2cc(ccn2)-c2ccccc2NC1=O` [Example 52, (10R,14S)-14-[4-(3-Chloro-6-cyclopropyl-2-fluorophenyl)-6-oxo-1,2,3,6-tetrahydropyridin-1-yl]-10-methyl-8,16-diazatricyclo[13.3.1.0^2,7]nonadeca-1(19),2,4,6,15,17-hexaen-9-one, TFA salt], the values for the Ki in assay [1] and in assay [2] were 45.6 nM and 193 nM, respectively.

As to `COc1ccc2c(c1)NC(=O)[C@H](C)CCC[C@H](N1CCC(c3c(F)ccc(Cl)c3F)=CC1=O)c1cc-2ccn1` [Example 17, (10R,14S)-14-[4-(3-chloro-2,6-difluorophenyl)-6-oxo-1,2,3,6-tetrahydropyridin-1-yl]-5-methoxy-10-methyl-8,16-diazatricyclo[13.3.1.0^2,7]nonadeca-1(19),2,4,6,15,17-hexaen-9-one, TFA salt], the Ki in assay [1] amounted to 45.3 nM; in assay [2] it was 114 nM.

Take `C[C@@H]1CCC[C@H](N2CCC(c3c(F)ccc(Cl)c3F)=CC2=O)c2cc(ccn2)-c2ccc(Nc3cccnc3)cc2NC1=O` [Example 195, (10R,14S)-14-[4-(3-chloro-2,6-difluorophenyl)-6-oxo-1,2,3,6-tetrahydropyridin-1-yl]-10-methyl-5-[(pyridin-3-yl)amino]-8,16-diazatricyclo[13.3.1.0^2,7]nonadeca-1(19),2(7),3,5,15,17-hexaen-9-one, 3 TFA salt]: the Ki in assay [1] came out at 0.47 nM; in assay [2], 2.96 nM.

For the compound `Cc1cc2cc3c(cc2[nH]1)NC(=O)[C@H](C)CCC[C@H](N1CCC(c2c(F)ccc(Cl)c2F)=CC1=O)c1cc-3ccn1` [Example 85, (13R,17S)-17-[4-(3-Chloro-2,6-difluorophenyl)-6-oxo-1,2,3,6-tetrahydropyridin-1-yl]-6,13-dimethyl-7,11,19-triazatetracyclo[16.3.1.0^2,10.0^4,8]docosa-1(22),2,4(8),5,9,18,20-heptaen-12-one, TFA salt], the Ki was found to be 9.17 nM in assay [1] and 47 nM in assay [2].

For the compound `COC(=O)Nc1ccc2c(c1)NC(=O)[C@H](C)CCC[C@H](N1CCC(c3cc(Cl)ccc3C)=CC1=O)c1cc-2ccn1` [Example 110, Methyl N-[(10R,14S)-14-[4-(5-chloro-2-methylphenyl)-6-oxo-1,2,3,6-tetrahydropyridin-1-yl]-10-methyl-9-oxo-8,16-diazatricyclo[13.3.1.0^2,7]nonadeca-1(18),2,4,6,15(19),16-hexaen-5-yl]carbamate], the Ki came out at 0.62 nM in assay [1] and 3.91 nM in assay [2].

As to `COC(=O)c1ccc2c(c1)-c1cccc(c1)[C@@H](N1CCC(c3cccc(Cl)c3F)=CC1=O)CCC[C@@H](C)C(=O)N2` [Example 169, Methyl (10R,14S)-14-[4-(3-chloro-2-fluorophenyl)-6-oxo-1,2,3,6-tetrahydropyridin-1-yl]-10-methyl-9-oxo-8-azatricyclo[13.3.1.0^2,7]nonadeca-1(18),2,4,6,15(19),16-hexaene-4-carboxylate], the figures for the Ki in assay [1] and in assay [2] were over 417 nM and 768 nM, respectively.

In the case of `C[C@@H]1CCC[C@H](N2CCC(c3c(C#N)ccc(C#N)c3F)=CC2=O)c2cc(ccn2)-c2cc(F)c(F)cc2NC1=O` [Example 210, 2-{1-[(10R,14S)-4,5-difluoro-10-methyl-9-oxo-8,16-diazatricyclo[13.3.1.0^2,7]nonadeca-1(19),2(7),3,5,15,17-hexaen-14-yl]-6-oxo-1,2,3,6-tetrahydropyridin-4-yl}-3-fluorobenzene-1,4-dicarbonitrile, TFA salt], the Ki came to 477 nM in assay [1] and 1200 nM in assay [2].

On to `COC(=O)Nc1ccc2c(c1)NC(=O)[C@H](C)CCC[C@H](N1CCC(c3c(Br)ccc(Cl)c3F)=CC1=O)c1cccc-2c1` [Example 161, Methyl N-[(10R,14S)-14-[4-(6-bromo-3-chloro-2-fluorophenyl)-6-oxo-1,2,3,6-tetrahydropyridin-1-yl]-10-methyl-9-oxo-8-azatricyclo[13.3.1.0^2,7]nonadeca-1(19),2,4,6,15,17-hexaen-5-yl]carbamate], for which the figures for the Ki in assay [1] and in assay [2] were 0.59 nM and 21.6 nM, respectively.

For the compound `C[C@@H]1CCC[C@H](N2CCC(c3c(F)ccc(Cl)c3F)=CC2=O)c2cc(ccn2)-c2ccc(Nc3ccccn3)cc2NC1=O` [Example 88, (10R,14S)-14-[4-(3-Chloro-2,6-difluorophenyl)-6-oxo-1,2,3,6-tetrahydropyridin-1-yl]-10-methyl-5-[(pyridin-2-yl)amino]-8,16-diazatricyclo[13.3.1.0^2,7]nonadeca-1(19),2(7),3,5,15,17-hexaen-9-one, 2TFA salt], the inhibition constant (Ki) in assay [1] was determined as 1.04 nM; in assay [2], 5 nM.

Turning to `C[C@@H]1CCC[C@H](N2CCC(c3c(C#N)ccc(Cl)c3F)=CC2=O)c2cc(ccn2)-c2ccc(C(N)=O)cc2NC1=O` [Example 33, (10R,14S)-14-[4-(3-Chloro-6-cyano-2-fluorophenyl)-6-oxo-1,2,3,6-tetrahydropyridin-1-yl]-10-methyl-9-oxo-8,16-diazatricyclo[13.3.1.0^2,7]nonadeca-1(19),2,4,6,15,17-hexaene-5-carboxamide, TFA salt], the Ki was 2.02 nM in assay [1] and 3 nM in assay [2].

Turning to `C[C@@H]1CCC[C@H](N2CCC(c3c(-c4ccccc4)ccc(Cl)c3F)=CC2=O)c2cc(ccn2)-c2ccccc2NC1=O` [Example 57, (10R,14S)-14-[4-(3-Chloro-2-fluoro-6-phenylphenyl)-6-oxo-1,2,3,6-tetrahydropyridin-1-yl]-10-methyl-8,16-diazatricyclo[13.3.1.0^2,7]nonadeca-1(19),2,4,6,15,17-hexaen-9-one, TFA salt], the figures for the Ki in assay [1] and in assay [2] were 35.6 nM and 351 nM, respectively.

Regarding `Cc1[nH]c2nc1-c1ccccc1NC(=O)[C@H](C)CCC[C@@H]2N1CCC(c2c(F)ccc(Cl)c2F)=CC1=O` [Example 220, (10R,14S)-14-[4-(3-chloro-2,6-difluorophenyl)-6-oxo-1,2,3,6-tetrahydropyridin-1-yl]-10,17-dimethyl-8,16,18-triazatricyclo[13.2.1.0^2,7]octadeca-1(17),2,4,6,15(18)-pentaen-9-one, TFA salt], the inhibition constant (Ki) in assay [1] stood at 21.7 nM; in assay [2], 50.2 nM.

Turning to `C[C@@H]1CCC[C@H](N2CCC(c3c(C#N)ccc(Cl)c3F)=CC2=O)c2cc(ccn2)-c2cc(F)ccc2NC1=O` [Example 150, 4-chloro-3-fluoro-2-{1-[(10R,14S)-4-fluoro-10-methyl-9-oxo-8,16-diazatricyclo[13.3.1.0^2,7]nonadeca-1(19),2(7),3,5,15,17-hexaen-14-yl]-6-oxo-1,2,3,6-tetrahydropyridin-4-yl}benzonitrile], the Ki in assay [1] was determined as 0.99 nM; in assay [2], 2.27 nM.

For `C[C@@H]1CCC[C@H](N2CCC(c3c(C#N)ccc(Cl)c3F)=CC2=O)c2cc(ccn2)-c2c(F)cc(F)cc2NC1=O` [Example 207, 4-chloro-2-{1-[(10R,14S)-3,5-difluoro-10-methyl-9-oxo-8,16-diazatricyclo[13.3.1.0^2,7]nonadeca-1(19),2(7),3,5,15,17-hexaen-14-yl]-6-oxo-1,2,3,6-tetrahydropyridin-4-yl}-3-fluorobenzonitrile, TFA salt], the Ki in assay [1] is 2.75 nM; in assay [2], 5.8 nM.

Consider `C[C@@H]1CCC[C@H](N2CCC(c3c(F)ccc(Cl)c3F)=CC2=O)c2cc(ccn2)-c2ccc(NC3O[C@H](CO)[C@@H](O[C@H]4O[C@H](CO)[C@@H](O[C@H]5O[C@H](CO)[C@@H](O)[C@H](O)[C@H]5O)[C@H](O)[C@H]4O)[C@H](O)[C@H]3O)cc2NC1=O` (stereo partly drawn) [Example 133, (10R,14S)-14-[4-(3-chloro-2,6-difluorophenyl)-6-oxo-1,2,3,6-tetrahydropyridin-1-yl]-5-{[(3R,4R,5S,6R)-5-{[(2R,3R,4R,5S,6R)-3,4-dihydroxy-6-(hydroxymethyl)-5-{[(2R,3R,4S,5S,6R)-3,4,5-trihydroxy-6-(hydroxymethyl)oxan-2-yl]oxy}oxan-2-yl]oxy}-3,4-dihydroxy-6-(hydroxymethyl)oxan-2-yl]amino}-10-methyl-8,16-diazatricyclo[13.3.1.0^2,7]nonadeca-1(19),2,4,6,15,17-hexaen-9-one], for which the values for the Ki in assay [1] and in assay [2] were 4.77 nM and 12.6 nM, respectively.

Take `Cc1nn(C)cc1-c1ccc(Cl)c(F)c1C1=CC(=O)N([C@H]2CCC[C@@H](C)C(=O)Nc3ccccc3-c3ccnc2c3)CC1` [Example 60, (10R,14S)-14-{4-[3-Chloro-6-(1,3-dimethyl-1H-pyrazol-4-yl)-2-fluorophenyl]-6-oxo-1,2,3,6-tetrahydropyridin-1-yl}-10-methyl-8,16-diazatricyclo[13.3.1.0^2,7]nonadeca-1(19),2,4,6,15,17-hexaen-9-one, TFA salt]: the Ki in assay [1] was over 409 nM; in assay [2] it was 1090 nM.

For the compound `Cc1ccc2c(c1)-c1ccnc(c1)[C@@H](N1CCC(c3c(F)ccc(Cl)c3F)=CC1=O)CCC[C@@H](C)C(=O)N2` [Example 141, (10R,14S)-14-[4-(3-chloro-2,6-difluorophenyl)-6-oxo-1,2,3,6-tetrahydropyridin-1-yl]-4,10-dimethyl-8,16-diazatricyclo[13.3.1.0^2,7]nonadeca-1(19),2(7),3,5,15,17-hexaen-9-one], the Ki in assay [1] was 98.9 nM; in assay [2] it was 123 nM.

Take `C[C@@H]1CCC[C@H](N2CCC(c3c(F)ccc(Cl)c3F)=CC2=O)c2cc(cc[n+]2[O-])-c2ccc(N)cc2NC1=O` [Example 70, (10R,14S)-5-Amino-14-[4-(3-chloro-2,6-difluorophenyl)-6-oxo-1,2,3,6-tetrahydropyridin-1-yl]-10-methyl-9-oxo-8,16-diazatricyclo[13.3.1.0^2,7]nonadeca-1(19),2,4,6,15,17-hexaen-16-ium-16-olate, TFA salt]: the Ki in assay [1] stood at 8.02 nM; in assay [2] it was 18 nM.
